Test results published in US6472198B1, “Slow release substrates for driving microbial transformations of environmental contaminants” (The State of Oregon Acting by and through the State Board …, priority 1998, dated 2002).
“Also recorded” adds a separate entry of the source.

Experiments:
[1] = Abiotic hydrolysis of TBOS and TKEBS in sterilized pH buffered solutions; format: physicochemical; settings: for effect of temperature on hydrolysis: pH 7, 10 mg/L, 15 °C vs 30 °C; for factor of increase in rate of hydrolysis on ten-fold increase in concentration: pH 7, 30 °C, 10 mg/L to 100 mg/L
[2] = Solubility in water (statement); format: physicochemical
[3] = system: Pt. Mugu groundwater and aquifer solids microcosm; experiment: Anaerobic reductive dechlorination of TCE in Pt. Mugu microcosm amended with TBOS; format: cell-based; settings: for incubation time after which dechlorination of the substance was observed: TCE 5 mg/L, Pt. Mugu microcosm
[4] = Hydrolysis period of slow release compounds in bioremediation studies; format: physicochemical; settings: TBOS to 1-butanol, TPOS to phenol
Source text: These alcohols can then be used by the microorganisms to cometabolize halogenated organics, such as TCE, for example. As discussed in the Examples below, the decrease in TBOS in a poisoned (killed) control compared similarly to the nonpoisoned (live) microbially active system under anaerobic conditions. Microbial activity was indicated by the production of acetate, butanol, butyrate, and hydrogen in the live microcosms, and the lack of production in the poisoned control. […] Thus, TBOS is not directly degraded, but is first hydrolyzed by reactions with water to form 1-butanol, which can then be used to drive the aerobic cometabolism of chlorinated organics.

[5] = system: microbial culture grown on TBOS; experiment: Aerobic cometabolism of TCE by microorganisms grown on TBOS; format: cell-based
Protocol: (§1) Gas phase TCE and cis-DCE concentrations were measured by injecting 10-100 μL of a gaseous sample into a HP-5890 gas chromatograph connected to a photoionization detector (PID) followed by a flame ionization detector (FID). Chromatographic separation was carried-out with a 30-m megabore GSQ-PLOT column from J&W Scientific (Folsom, Calif.). The GC operating conditions were as follows: injector temperature, 250° C.; detector temperature: 280° C.; the column was initially maintained at 40° C. for 2 minutes and then heated to 220° C. at 15° C./minute.
The microcosms for aerobic cometabolism studies were carried out as described in Example 1 under the heading “Aerobic Biodegradation.” The bacterial culture used was that described in Example 1 under the heading “Enrichment of Aerobic Culture.” cis-DCE and TCE stocks in water were prepared by saturating distilled water with cis-DCE and TCE at 30° C. TCE and cis-DCE dissolved in the water to their solubility limit. The aqueous phase from these stocks was then added to the microcosms to yield the required concentrations (0.8 mg/L for TCE and 2 mg/L for cis-DCE). TBOS was introduced into the microcosms by injecting pure TBOS liquid using a microliter syringe.
Microbial culture from the wastewater treatment plant of Corvallis, Oregon grown on TBOS was tested for its ability to cometabolize TCE and cis-DCE. Microcosms were constructed with 4.0 mg (dry weight) of culture enriched from a continuous-feed batch reactor according to the procedure described in Example 1. Three microcosms and a control were evaluated: a poisoned control (i.e., a killed microcosm) with TBOS and TCE; a biologically active microcosm with TBOS and TCE; and a resting cell microcosm with only TCE; and an acetylene block microcosm with TBOS and TCE (having acetylene in the head space). The acetylene block experiment was used to investigate the presence of a monooxygenase enzyme.

[6] = system: microbially active Site 300 groundwater microcosm; experiment: Reductive dechlorination of TCE in Site 300 groundwater microcosm with TBOS and TKEBS added; format: cell-based; settings: TCE additions at 0, 135, 160 days
Protocol: The TCE dechlorination experiments were conducted in the same way as described in Example 3. In these experiments, however, TBOS and TKEBS were amended to samples of the groundwater microcosms.
Shown in FIGS. 11a-11c is a microbial active version of a Site 300 microcosm with TBOS and TKEBS added. However in this case both ethybutanol and butanol are utilized, compared to the poisoned control where they accumulated. Acetate, butyrate and hydrogen are produced as a result of fermentation reactions. […] Three additions of TCE are transformed at 0, 135, and 160 days, with the corresponding increases in c-DCE occurring. Hydrogen is shown to be utilized upon TCE addition and produced once TCE transformation has stopped.

[7] = system: indigenous microorganisms in groundwater (Lawrence Livermore Site 300); experiment: Anaerobic reductive dechlorination of TCE in Site 300 groundwater microcosms containing TKEBS; format: cell-based
Protocol: In initial studies, groundwater from Lawrence Livermore Laboratory(Site 300, D3 Well) was used to make up six different microcosms. Two of these microcosms were sterilized to form controls, one by the addition of mercuric chloride and the other by autoclaving. Two microcosms were amended with sodium benzoate (200 mg/L) as an additional carbon source and the last two were left untouched.
Later experiments were carried out to re-evaluate the anaerobic TCE transformation rates driven by TKEBS transformation. The culture used for these biodegradation studies were indigenous microorganisms stimulated from the groundwater (as described in Example 1) collected from the same site initially studied. The anaerobic biodegradation studies were carried out using 1L media bottles. The microcosms were prepared in an anaerobic glove box and then purged using treated (to remove oxygen) nitrogen to remove the hydrogen and carbon dioxide introduced into the microcosms from the glove box.
The groundwater was purged with treated nitrogen to remove all traces of TCE and cis-DCE prior to re-injection of TCE. Pure TCE was added to obtain concentrations of 100 mg/L(aqueous). […] The microcosms were analyzed for chlorinated ethenes, hydrogen, carbon dioxide, alcohols, and their fermentation products.

[8] = system: microbial culture grown on TBOS; settings: cited from earlier work
[9] = system: microbial culture grown on TBOS; experiment: Aerobic cometabolism of cis-DCE by microorganisms grown on TBOS; format: cell-based; settings: biologically active microcosm
Protocol: as §1
The microcosms for aerobic cometabolism studies were carried out as described in Example 1 under the heading “Aerobic Biodegradation.” The bacterial culture used was that described in Example 1 under the heading “Enrichment of Aerobic Culture.” cis-DCE and TCE stocks in water were prepared by saturating distilled water with cis-DCE and TCE at 30° C. TCE and cis-DCE dissolved in the water to their solubility limit. […]
The microbial culture grown on TBOS was tested for its ability to cometabolize cis-DCE. […] Four microcosms and two controls were evaluated: a poisoned control with TBOS and cis-DCE; an autoclaved control with TBOS and cis-DCE; two biologically active microcosms with TBOS and cis-DCE; a resting cell microcosm with only cis-DCE; and an acetylene block microcosm with TBOS and cis-DCE.

[10] = Hydrolysis rate category of organosilanes and organosiloxanes, approximately based on half lives; format: physicochemical; parameters: key: Slow - 1 month; Very Slow - Several months; Very Fast - days; Fast - weeks
[11] = pH 7.8 (site groundwater), 30 °C, 10 mg/L
[12] = organosilanes, Table 1, rates approximately based on half lives
[13] = organosiloxanes, Table 2, key given under Table 1

Molecule: CCCCO[Si](OCCCC)(OCCCC)OCCCC [No. 2, Tetrabutoxysilane]
- 1-butanol formed per TBOS hydrolyzed ([1]; 30 °C, 10 mg/L): 4 moles of 1-butanol per mole of TBOS
- rate of transformation at pH 5 and pH 9 compared to pH 7 ([1]; 30 °C, 10 mg/L): increased by a factor of two
- Rates of Hydrolysis Based on 1-butanol production ([1]; pH 5.0, 30 °C, 10 mg/L): 0.19 µmol/day
- Rates of Hydrolysis Based on TBOS degradation ([1]; pH 5.0, 30 °C, 10 mg/L): -0.160 µmol/day
- effect of temperature on hydrolysis [1]: Very little increase
- Rates of Hydrolysis Based on 1-butanol production ([1]; pH 7.0, 15 °C, 10 mg/L): 0.08 µmol/day
- Rates of Hydrolysis Based on TBOS degradation ([1]; pH 7.0, 15 °C, 10 mg/L): -0.060 µmol/day
- Rates of Hydrolysis Based on 1-butanol production ([1]; pH 7.0, 30 °C, 10 mg/L): 0.08 µmol/day
- Rates of Hydrolysis Based on TBOS degradation ([1]; pH 7.0, 30 °C, 10 mg/L): -0.062 µmol/day
- factor of increase in rate of hydrolysis on ten-fold increase in concentration [1]: 4
- Rates of Hydrolysis Based on 1-butanol production ([1]; pH 7.0, 30 °C, 100 mg/L): 0.26 µmol/day
- Rates of Hydrolysis Based on TBOS degradation ([1]; pH 7.0, 30 °C, 100 mg/L): -0.208 µmol/day
- Rates of Hydrolysis Based on 1-butanol production [1, 11]: 0.16 µmol/day
- Rates of Hydrolysis Based on TBOS degradation [1, 11]: -0.110 µmol/day
- Rates of Hydrolysis Based on 1-butanol production ([1]; pH 9.0, 30 °C, 10 mg/L): 0.22 µmol/day
- Rates of Hydrolysis Based on TBOS degradation ([1]; pH 9.0, 30 °C, 10 mg/L): -0.151 µmol/day
- solubility [2]: very low
- duration of TCE transformation resulting from addition of only TBOS ([3]; TBOS 1 g/L added at start of test): over 500 days
- persistence of TBOS in the microcosm ([3]; anaerobic Pt. Mugu microcosm, TBOS 1 g/L): over 450 days
- period over which hydrolysis to the alcohol occurs [4]: two month

Molecule: CCC(CC)CO[Si](OCC(CC)CC)(OCC(CC)CC)OCC(CC)CC [No. 3, Tetrakis(2-ethylbutoxy) silane]
- rate of hydrolysis compared with TBOS ([1]; listed as TKEBS): much slower rate; also recorded: about an order of magnitude lower
- Rates of Hydrolysis Based on 2-ethyl-butanol production ([1]; pH 5.0, 30 °C, 10 mg/L): 0.023 µmol/day
- effect of temperature on hydrolysis [1]: Very little increase
- Rates of Hydrolysis Based on 2-ethyl-butanol production ([1]; pH 7.0, 15 °C, 10 mg/L): 0.011 µmol/day
- Rates of Hydrolysis Based on 2-ethyl-butanol production ([1]; pH 7.0, 30 °C, 10 mg/L): 0.012 µmol/day
- factor of increase in rate of hydrolysis on ten-fold increase in concentration [1]: 10
- Rates of Hydrolysis Based on 2-ethyl-butanol production ([1]; pH 7.0, 30 °C, 100 mg/L): 0.105 µmol/day
- Rates of Hydrolysis Based on 2-ethyl-butanol production [1, 11]: 0.011 µmol/day
- Rates of Hydrolysis Based on 2-ethyl-butanol production ([1]; pH 9.0, 30 °C, 10 mg/L): 0.022 µmol/day

Molecule: c1ccc(O[Si](Oc2ccccc2)(Oc2ccccc2)Oc2ccccc2)cc1 [No. 4, Tetraphenoxysilane]
- period over which hydrolysis to the alcohol occurs [4]: weeks

Molecule: ClC=C(Cl)Cl [TCE, Trichloroethylene]
- TCE transformation in acetylene-blocked microcosm ([5]; TBOS and TCE, acetylene in head space, in 140 hours): about 20%
- time to complete cometabolism of TCE ([5]; TCE 0.89 mg/L (1.6 μmol), microcosm with TBOS 20 mg/L added): ≤ 65 h
- TCE cometabolism by resting cells, less than that achieved with TBOS addition ([5]; resting cells, no TBOS added): 15-20%
- incubation time after which dechlorination of the substance was observed ([3]; TBOS 1 g/L): 40 days
- TCE transformation (in words) [6]: rapidly transformed to c-DCE
- anaerobic TCE transformation in initial experiments (in words) ([7]; 125 mL serum bottles, groundwater microcosms): complete transformation of TCE to cis-DCE
- time for dechlorination of TCE to cis-DCE ([7]; TCE 100 mg/L, September '97 groundwater containing TKEBS and 2-ethylbutanol, 30 °C): 14 days

Molecule: C=CCl [VC, vinyl chloride]
- incubation time after which dechlorination of the substance was observed ([3]; TBOS 1 g/L): about 125 days

Molecule: Cl[C@@H]1O[C@@H]1Cl [cis-DCE epoxide]
- half-life of abiotic transformation of cis-DCE epoxide [8]: 70 h
- half-life of cis-DCE epoxide transformation [9]: about 35 hours

Molecule: Cl/C=C\Cl [cis-DCE, cis-dichloroethylene]
- incubation time after which dechlorination of the substance was observed ([3]; TBOS 1 g/L): about 90 days

Molecule: CCCO[Si](OCCC)(OCCC)OCCC [compound 1, Tetrapropoxysilane]
- Hydrolysis rate [10, 12]: Slow (Slow - 1 month)

Molecule: CCCCO[Si](OCCCC)(OCCCC)OCCCC [compound 2, Tetrabutoxysilane]
- Hydrolysis rate [10, 12]: Slow (Slow - 1 month)

Molecule: CCC(CC)CO[Si](OCC(CC)CC)(OCC(CC)CC)OCC(CC)CC [compound 3, Tetrakis(2-ethylbutoxy) silane]
- Hydrolysis rate [10, 12]: Very Slow

Molecule: CC(=O)O[Si](OC(C)=O)(OC(C)=O)OC(C)=O [compound 5, Silicon tetraacetate]
- Hydrolysis rate [10, 12]: Very Fast

Molecule: CCC(=O)O[Si](OC(=O)CC)(OC(=O)CC)OC(=O)CC [compound 6, Silicon tetrapropionate]
- Hydrolysis rate [10, 12]: Fast

Molecule: CCCC(=O)O[Si](OC(=O)CCC)(OC(=O)CCC)OC(=O)CCC [compound 7, Silicon tetrabutyrate]
- Hydrolysis rate [10, 12]: Fast

Molecule: C=CCO[Si](OCC=C)(OCC=C)OCC=C [compound 11, Tetraallyloxy silane]
- Hydrolysis rate [10, 12]: Slow (Slow - 1 month)

Molecule: CCC(C)CO[Si](OCC(C)CC)(OCC(C)CC)OCC(C)CC (stereo not drawn) [compound 13, Tetrakis(2-methylbutoxy) silane]
- Hydrolysis rate [10, 12]: Very Slow

Molecule: CCC(C)O[Si](OC(C)CC)(OC(C)CC)OC(C)CC (stereo not drawn) [compound 14, Tetrakis(1-methylpropoxy) silane]
- Hydrolysis rate [10, 12]: Slow (Slow - 1 month)

Molecule: CC(C)CO[Si](OCC(C)C)(OCC(C)C)OCC(C)C [compound 15, Tetrakis(2-methylpropoxy) silane]
- Hydrolysis rate [10, 12]: Slow (Slow - 1 month)

Molecule: CC(C)O[Si](OC(C)C)(OC(C)C)OC(C)C [compound 18, Tetrakis(1-methylethoxy) silane]
- Hydrolysis rate [10, 12]: Slow (Slow - 1 month)

Molecule: CCO[Si](OCC)(OCC)O[Si](OCC)(OCC)OCC [compound 19]
- Hydrolysis rate [10, 13]: Slow (Slow - 1 month)

Molecule: CCCO[Si](OCCC)(OCCC)O[Si](OCCC)(OCCC)OCCC [compound 20]
- Hydrolysis rate [10, 13]: Slow (Slow - 1 month)

Molecule: CCCCO[Si](OCCCC)(OCCCC)O[Si](OCCCC)(OCCCC)OCCCC [compound 21]
- Hydrolysis rate [10, 13]: Slow (Slow - 1 month)

Molecule: c1ccc(O[Si](Oc2ccccc2)(Oc2ccccc2)O[Si](Oc2ccccc2)(Oc2ccccc2)Oc2ccccc2)cc1 [compound 22]
- Hydrolysis rate [10, 13]: Slow (Slow - 1 month)

Molecule: CCO[Si](OCC)(OCC)O[Si](OCC)(OCC)O[Si](OCC)(OCC)OCC [compound 23]
- Hydrolysis rate [10, 13]: Slow (Slow - 1 month)

Molecule: Tetrakis(1-hydroxypropoxy) silane [compound 17]
- Hydrolysis rate [10, 12]: Fast

Molecule: Tetrakis(benzylmethoxy) silane [compound 16]
- Hydrolysis rate [10, 12]: Fast

Molecule: Tetraphenoxysilane [compound 4]
- Hydrolysis rate [10, 12]: Very Fast
